Experimental data published in ChEMBL document CHEMBL1201862, “PubChem BioAssay data set” (2004).
Blank lines part the entries; values can stand above or below the molecule they belong to. Calls of active or inactive are those of the source.

Tests used:
[1] = target: T1, CAAX prenyl protease 2 (Saccharomyces cerevisiae S288c, UniProt Q03530); format: biochemical
T1 sequence (Q03530 whole entry): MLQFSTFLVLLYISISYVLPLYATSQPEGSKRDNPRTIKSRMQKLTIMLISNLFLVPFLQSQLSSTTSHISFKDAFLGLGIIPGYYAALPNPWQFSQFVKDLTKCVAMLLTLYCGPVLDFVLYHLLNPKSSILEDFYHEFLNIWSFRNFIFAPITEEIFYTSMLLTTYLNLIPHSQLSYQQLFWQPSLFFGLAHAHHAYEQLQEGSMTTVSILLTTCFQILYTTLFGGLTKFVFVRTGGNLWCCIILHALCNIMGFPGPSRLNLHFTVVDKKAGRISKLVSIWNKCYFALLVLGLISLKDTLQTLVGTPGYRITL

[2] = target: T2, CAAX prenyl protease 2 (Homo sapiens, UniProt Q9Y256); experiment: human Rce1 protease inhibitors, dose response, biochemical, yeast membranes, quenched-peptide fluorescence, cherry-pick (AID 588849)
T2 sequence (Q9Y256 whole entry): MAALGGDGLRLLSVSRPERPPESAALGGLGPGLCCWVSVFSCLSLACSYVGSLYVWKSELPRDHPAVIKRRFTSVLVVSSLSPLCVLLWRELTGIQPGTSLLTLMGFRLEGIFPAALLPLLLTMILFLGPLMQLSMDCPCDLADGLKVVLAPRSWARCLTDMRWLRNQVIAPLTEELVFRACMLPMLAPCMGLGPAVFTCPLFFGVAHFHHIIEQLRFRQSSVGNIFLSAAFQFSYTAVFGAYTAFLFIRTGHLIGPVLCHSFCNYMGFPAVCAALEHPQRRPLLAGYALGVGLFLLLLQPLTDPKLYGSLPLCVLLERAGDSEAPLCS

[3] = target: T3, DNA repair protein RAD52 homolog (Homo sapiens, UniProt P43351); format: functional, biochemical
T3 sequence (P43351 whole entry): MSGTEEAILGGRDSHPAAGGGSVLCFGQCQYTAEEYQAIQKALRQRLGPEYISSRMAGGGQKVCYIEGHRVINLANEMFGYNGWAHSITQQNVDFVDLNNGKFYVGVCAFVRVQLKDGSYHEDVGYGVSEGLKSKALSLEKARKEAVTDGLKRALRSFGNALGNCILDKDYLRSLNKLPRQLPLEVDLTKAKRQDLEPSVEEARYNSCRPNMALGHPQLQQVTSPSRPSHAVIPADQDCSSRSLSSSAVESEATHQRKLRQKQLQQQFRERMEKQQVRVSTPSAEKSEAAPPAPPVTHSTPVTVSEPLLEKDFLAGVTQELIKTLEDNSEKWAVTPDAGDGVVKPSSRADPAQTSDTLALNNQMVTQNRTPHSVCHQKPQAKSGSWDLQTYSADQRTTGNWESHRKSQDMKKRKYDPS

[4] = target: T4, Histone-lysine N-methyltransferase NSD2 (Homo sapiens, UniProt O96028); format: biochemical
T4 sequence (O96028 whole entry): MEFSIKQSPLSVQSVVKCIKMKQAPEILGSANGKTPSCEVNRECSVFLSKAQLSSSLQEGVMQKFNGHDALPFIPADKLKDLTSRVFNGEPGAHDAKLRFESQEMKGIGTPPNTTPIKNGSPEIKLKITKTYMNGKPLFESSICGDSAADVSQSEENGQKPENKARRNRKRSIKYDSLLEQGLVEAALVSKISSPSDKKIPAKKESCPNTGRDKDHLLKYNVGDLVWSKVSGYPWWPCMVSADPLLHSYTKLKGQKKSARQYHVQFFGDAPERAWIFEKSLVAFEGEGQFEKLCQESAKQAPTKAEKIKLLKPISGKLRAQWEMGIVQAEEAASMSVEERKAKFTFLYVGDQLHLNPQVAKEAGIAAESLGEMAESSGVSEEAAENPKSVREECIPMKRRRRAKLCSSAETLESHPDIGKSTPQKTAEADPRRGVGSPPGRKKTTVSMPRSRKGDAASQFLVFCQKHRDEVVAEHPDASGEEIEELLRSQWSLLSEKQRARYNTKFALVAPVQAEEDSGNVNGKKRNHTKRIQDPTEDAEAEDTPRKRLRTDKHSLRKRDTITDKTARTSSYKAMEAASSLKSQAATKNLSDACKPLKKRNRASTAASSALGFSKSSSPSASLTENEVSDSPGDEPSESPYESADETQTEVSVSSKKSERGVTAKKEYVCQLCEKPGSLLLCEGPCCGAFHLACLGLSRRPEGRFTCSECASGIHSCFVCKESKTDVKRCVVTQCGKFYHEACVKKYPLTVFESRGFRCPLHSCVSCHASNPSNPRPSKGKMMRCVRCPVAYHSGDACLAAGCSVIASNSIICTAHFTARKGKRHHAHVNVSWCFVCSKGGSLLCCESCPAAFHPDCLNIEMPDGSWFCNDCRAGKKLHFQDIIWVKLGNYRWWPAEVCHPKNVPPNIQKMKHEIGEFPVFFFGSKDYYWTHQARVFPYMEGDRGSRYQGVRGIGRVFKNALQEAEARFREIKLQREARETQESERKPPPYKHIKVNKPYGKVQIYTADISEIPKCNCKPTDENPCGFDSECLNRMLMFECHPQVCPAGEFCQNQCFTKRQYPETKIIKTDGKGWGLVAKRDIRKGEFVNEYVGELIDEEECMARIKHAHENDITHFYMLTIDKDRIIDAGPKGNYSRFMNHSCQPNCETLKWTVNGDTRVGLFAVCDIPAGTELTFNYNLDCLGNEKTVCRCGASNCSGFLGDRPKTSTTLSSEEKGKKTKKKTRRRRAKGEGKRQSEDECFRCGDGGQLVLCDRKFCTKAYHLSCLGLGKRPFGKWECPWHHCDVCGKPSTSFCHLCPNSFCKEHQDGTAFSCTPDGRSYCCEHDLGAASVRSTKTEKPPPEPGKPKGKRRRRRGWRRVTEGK

[5] = target: Troponin, cardiac muscle (Homo sapiens, UniProt P19429+P45379+P63316); experiment: Fluorescence-based biochemical high throughput dose response assay for activators of the calcium sensitivity of cardiac Regulated Thin Filaments (RTF). [Related pubchem assays (depositor defined):AID493008, AID493018, AID504382, AID504383]; format: protein-complex assay
[6] = target: T5, High affinity choline transporter 1 (Homo sapiens, UniProt Q9GZV3); experiment: CHT inhibitors, dose response, cell-based, 5-point CRC, membrane potential dye (AID 504840); format: functional
T5 sequence (Q9GZV3 whole entry): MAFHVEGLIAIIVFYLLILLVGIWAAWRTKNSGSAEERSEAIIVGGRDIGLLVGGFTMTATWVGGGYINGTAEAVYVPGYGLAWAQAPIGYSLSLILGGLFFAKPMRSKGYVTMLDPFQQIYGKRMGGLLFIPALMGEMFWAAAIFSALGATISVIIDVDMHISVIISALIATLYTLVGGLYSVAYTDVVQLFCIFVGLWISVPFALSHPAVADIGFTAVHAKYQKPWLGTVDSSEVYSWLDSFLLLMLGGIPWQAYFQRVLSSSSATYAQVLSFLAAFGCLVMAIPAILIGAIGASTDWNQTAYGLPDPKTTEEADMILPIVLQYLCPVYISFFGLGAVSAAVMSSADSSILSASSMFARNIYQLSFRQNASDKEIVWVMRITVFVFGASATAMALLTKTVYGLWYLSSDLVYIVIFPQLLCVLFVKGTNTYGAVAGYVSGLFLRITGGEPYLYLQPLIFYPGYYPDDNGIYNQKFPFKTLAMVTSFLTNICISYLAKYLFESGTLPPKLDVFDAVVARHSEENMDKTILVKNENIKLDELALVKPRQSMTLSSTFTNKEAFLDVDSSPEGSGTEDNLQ

[7] = target: T5, High affinity choline transporter 1; experiment: CHT inhibitors, dose response, cell-based, 10-point CRC, membrane potential dye (AID 588401); format: functional;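 note: membrane potential dye fluorescence of choline-evoked depolarization via CHT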
[8] = target: T6, Polyadenylate-binding protein 1 (Homo sapiens, UniProt P11940); experiment: PABP1 MLLE–PAM2 interaction inhibitors, dose response, miRNA deadenylation inhibitor project, biochemical, fluorescence polarization, Cy5-PAM2 peptide, secondary (AID 602260); format: functional; details: read-out: IC50_Mean
[9] = target: T6, Polyadenylate-binding protein 1; experiment: PABP1 MLLE–PAM2 binding inhibitor potency, dose response, biochemical, fluorescence polarization, FITC-PAM2 peptide (AID 602259); format: functional; details: read-out: IC50_Mean
[10] = target: Heat shock protein HSP 90-alpha (Homo sapiens, UniProt P07900); format: functional, organism-based
[11] = target: T7, Rac GTPase-activating protein 1 (Homo sapiens, UniProt Q9H0H5); experiment: MgcRacGAP GTPase-activating activity inhibitors, confirmation, biochemical, ADP Hunter fluorescence, primary and confirmatory (AID 624330); format: functional
T7 sequence (Q9H0H5 whole entry): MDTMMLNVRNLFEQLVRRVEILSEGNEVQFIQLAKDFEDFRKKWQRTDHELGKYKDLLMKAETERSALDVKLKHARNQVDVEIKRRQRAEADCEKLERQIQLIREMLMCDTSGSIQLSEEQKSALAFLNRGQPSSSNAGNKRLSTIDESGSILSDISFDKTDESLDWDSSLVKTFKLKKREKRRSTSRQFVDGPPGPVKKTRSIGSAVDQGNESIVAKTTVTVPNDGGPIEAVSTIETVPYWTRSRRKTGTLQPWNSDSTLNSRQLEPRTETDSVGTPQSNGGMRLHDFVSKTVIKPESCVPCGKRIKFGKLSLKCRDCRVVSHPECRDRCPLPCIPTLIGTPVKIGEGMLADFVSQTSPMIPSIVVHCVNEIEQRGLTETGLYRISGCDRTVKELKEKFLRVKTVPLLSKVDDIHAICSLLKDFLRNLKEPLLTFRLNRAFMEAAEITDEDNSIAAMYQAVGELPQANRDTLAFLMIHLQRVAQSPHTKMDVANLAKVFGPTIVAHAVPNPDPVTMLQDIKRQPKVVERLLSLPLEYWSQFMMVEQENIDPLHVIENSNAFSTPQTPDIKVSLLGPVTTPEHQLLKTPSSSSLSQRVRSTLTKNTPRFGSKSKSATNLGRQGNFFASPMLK

[12] = target: Melanin-concentrating hormone receptor 1 (Homo sapiens, UniProt Q99705); experiment: Late-stage fluorescence-based counterscreen for antagonists of the G-protein coupled receptor 7 (GPR7): cell-based dose response assay to identify antagonists of the melanin-concentrating hormone receptor 1 (MCHR1) Set 5.; format: functional
[13] = target: T8, Apoptotic protease-activating factor 1 (Homo sapiens, UniProt O14727); experiment: SAR analysis of small molecule Activators of Apaf-1 in a Fluorescent assay.; format: functional; details: read-out: EC50_Mean;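 note: caspase-3 cleavage of fluorogenic Rh110 DEVD substrate downstream of apoptosome activation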
T8 sequence (O14727 whole entry): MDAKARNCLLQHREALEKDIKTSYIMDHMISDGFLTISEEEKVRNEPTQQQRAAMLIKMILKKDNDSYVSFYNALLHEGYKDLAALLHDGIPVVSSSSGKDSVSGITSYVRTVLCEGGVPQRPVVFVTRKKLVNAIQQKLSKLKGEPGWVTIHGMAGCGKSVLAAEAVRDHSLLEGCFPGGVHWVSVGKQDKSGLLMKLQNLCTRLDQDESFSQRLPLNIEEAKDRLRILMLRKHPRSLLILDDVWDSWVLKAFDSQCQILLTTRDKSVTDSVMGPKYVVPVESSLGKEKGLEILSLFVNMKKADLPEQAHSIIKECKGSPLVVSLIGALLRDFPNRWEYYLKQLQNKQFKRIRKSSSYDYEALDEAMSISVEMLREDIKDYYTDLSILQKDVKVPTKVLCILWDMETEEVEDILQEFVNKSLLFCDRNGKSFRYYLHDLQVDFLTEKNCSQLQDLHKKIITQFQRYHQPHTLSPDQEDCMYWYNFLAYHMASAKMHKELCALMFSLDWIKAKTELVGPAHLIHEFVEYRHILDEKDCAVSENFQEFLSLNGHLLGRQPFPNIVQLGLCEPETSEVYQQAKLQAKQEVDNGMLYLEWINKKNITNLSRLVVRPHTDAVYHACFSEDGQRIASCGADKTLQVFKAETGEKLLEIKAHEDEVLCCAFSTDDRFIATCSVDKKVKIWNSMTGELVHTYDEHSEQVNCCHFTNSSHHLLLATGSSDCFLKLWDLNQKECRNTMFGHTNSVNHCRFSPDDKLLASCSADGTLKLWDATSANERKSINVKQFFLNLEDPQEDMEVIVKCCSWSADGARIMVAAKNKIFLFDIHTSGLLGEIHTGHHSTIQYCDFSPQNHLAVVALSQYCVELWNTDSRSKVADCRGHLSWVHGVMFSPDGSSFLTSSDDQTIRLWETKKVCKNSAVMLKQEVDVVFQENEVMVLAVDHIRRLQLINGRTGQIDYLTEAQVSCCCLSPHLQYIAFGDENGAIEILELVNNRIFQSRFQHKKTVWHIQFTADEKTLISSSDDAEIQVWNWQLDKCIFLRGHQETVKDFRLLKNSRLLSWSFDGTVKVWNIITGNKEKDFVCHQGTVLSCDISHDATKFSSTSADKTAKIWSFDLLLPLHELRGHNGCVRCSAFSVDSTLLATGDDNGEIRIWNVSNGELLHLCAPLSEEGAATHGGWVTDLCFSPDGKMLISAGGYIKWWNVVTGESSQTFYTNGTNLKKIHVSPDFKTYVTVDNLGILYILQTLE

T6 sequence (P11940 whole entry): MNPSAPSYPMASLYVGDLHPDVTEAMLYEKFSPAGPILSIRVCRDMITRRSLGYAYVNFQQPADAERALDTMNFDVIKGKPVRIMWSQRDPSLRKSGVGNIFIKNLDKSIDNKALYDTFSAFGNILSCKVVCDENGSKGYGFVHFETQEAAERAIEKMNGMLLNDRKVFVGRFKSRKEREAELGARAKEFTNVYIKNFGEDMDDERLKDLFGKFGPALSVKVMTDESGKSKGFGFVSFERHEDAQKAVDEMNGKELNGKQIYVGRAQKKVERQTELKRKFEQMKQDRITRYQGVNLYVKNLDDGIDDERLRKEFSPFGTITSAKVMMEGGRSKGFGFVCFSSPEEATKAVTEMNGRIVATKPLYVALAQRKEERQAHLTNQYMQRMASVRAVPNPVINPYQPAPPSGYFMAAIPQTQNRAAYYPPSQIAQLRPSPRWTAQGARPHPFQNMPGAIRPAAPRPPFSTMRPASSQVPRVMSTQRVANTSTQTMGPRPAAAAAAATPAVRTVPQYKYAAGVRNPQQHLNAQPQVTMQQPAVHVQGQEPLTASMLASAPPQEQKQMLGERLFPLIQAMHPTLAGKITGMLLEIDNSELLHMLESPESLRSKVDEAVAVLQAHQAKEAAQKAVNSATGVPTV
Sequence of Melanin-concentrating hormone receptor 1 (Q99705 whole entry): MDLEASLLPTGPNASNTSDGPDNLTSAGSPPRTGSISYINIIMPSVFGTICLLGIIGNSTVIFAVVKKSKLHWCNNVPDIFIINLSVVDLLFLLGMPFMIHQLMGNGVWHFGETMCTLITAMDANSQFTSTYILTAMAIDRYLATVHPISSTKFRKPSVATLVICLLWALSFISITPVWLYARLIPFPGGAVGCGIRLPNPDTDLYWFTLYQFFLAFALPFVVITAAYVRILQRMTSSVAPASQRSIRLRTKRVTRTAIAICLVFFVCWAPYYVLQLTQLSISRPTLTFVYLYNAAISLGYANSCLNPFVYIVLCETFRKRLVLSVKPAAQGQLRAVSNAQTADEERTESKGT

AC50 [1]: 16.4 µM (active)
AC50 [2]: 10.5 µM (active)
AC50 [3]: 5.22 µM (active)
AC50 [4]: 9.07 µM (active)
Structure (SMILES): CCN(CC)CCCN(Cc1cc2cc3c(cc2[nH]c1=O)OCO3)C(=S)NCCCN(C)C

EC50 [5]: > 71.5 µM (inactive)
IC50 [6]: 4.79 µM (active)
IC50 [7]: 3.55 µM (active)
IC50 [8]: > 66 µM (inactive)
IC50 [9]: > 66 µM (inactive)
Structure (SMILES): CN1c2ccccc2C(O)=C(C(S)=Nc2ccc(F)c(Cl)c2)S1(=O)=O

IC50 [6]: 10.5 µM (active)
IC50 [7]: 11.2 µM (active)
Structure (SMILES): CCC(Oc1ccccc1)C(=O)Nc1ccc(S(=O)(=O)NCC2CCCO2)cc1 (centres undefined)

IC50 [6]: 6.92 µM (active)
IC50 [7]: 3.36 µM (active)
Structure (SMILES): O=C(NCC(c1ccco1)N1CCCCC1)c1cccc(NS(=O)(=O)c2ccc(Br)cc2)c1 (centres undefined)

AC50 [10]: 2.2 µM (active)
IC50 [11]: 76 µM (active)
Structure (SMILES): O=[S@]1Oc2ccccc2-c2ccccc21

IC50 [12]: 3.22 µM (active)
Structure (SMILES): COc1cc(Oc2c(Cl)cnn(Cc3cccc4ccccc34)c2=O)cc(OC)c1OC

EC50 [13]: > 100 µM (inactive)
Structure (SMILES): O=C1CC2(CC(c3ccc(F)cc3)=NO2)C(=O)N1c1cccc(Cl)c1 (centres undefined)

IC50 [12]: 0.707 µM (active)
Structure (SMILES): COc1ccc(Oc2c(Cl)cnn(-c3nc4ccccc4c(=O)c4ccccc34)c2=O)cc1

EC50 [13]: > 100 µM (inactive)
Structure (SMILES): COc1cc(Cl)c(C)cc1NC(=O)CCS(=O)(=O)c1ccc(Cl)cc1
